The text below walks through data of paper PMC10060569 (Frontiers in Pharmacology, 2023).

As a reminder, the IC50 is the midpoint of a concentration-inhibition curve.

A value given as a limit tells only on which side of the number the result lay.

For assay [1], the system named is COX1. Set-up: method as in Warner et al., 1999. Particulars: ref Warner et al., 1999; cited from earlier work.
The target in assay [2] is T1, S15V-rP2X3R (Rattus norvegicus, UniProt P49654, S15V).
T1 construct: expressed in transfected cells; host or cells: Xenopus laevis oocytes (cRNA injection)
T1 sequence (P49654 1-397 S15V): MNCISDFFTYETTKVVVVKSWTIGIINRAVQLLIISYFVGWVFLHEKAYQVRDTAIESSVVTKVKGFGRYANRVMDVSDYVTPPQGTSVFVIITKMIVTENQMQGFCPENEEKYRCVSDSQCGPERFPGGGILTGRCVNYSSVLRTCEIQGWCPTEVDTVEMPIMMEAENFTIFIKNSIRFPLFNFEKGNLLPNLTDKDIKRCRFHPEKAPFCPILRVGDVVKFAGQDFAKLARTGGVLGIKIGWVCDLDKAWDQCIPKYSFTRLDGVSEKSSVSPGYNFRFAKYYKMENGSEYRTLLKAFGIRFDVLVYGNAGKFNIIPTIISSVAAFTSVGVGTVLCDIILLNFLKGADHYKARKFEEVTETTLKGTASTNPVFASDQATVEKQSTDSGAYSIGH
Set-up: method as in Obrecht et al., 2019. Particulars: previous screening; ref Obrecht et al., 2019; cited from earlier work.

In assay [3] the target is T1, S15V-rP2X3R. Nature of the assay: TEVC of ATP-induced currents, S15V-rP2X3R expressed in X. laevis oocytes (peak current protocol). It is filed as cell-based. Particulars: 1 µM ATP. The source says:
Oocyte expression plasmids encoding the wild-type (wt) and N-terminally His-tagged (His-) fusion constructs of the hP2X2R, hP2X3R, hP2X4R, and hP2X7R, and the mutant His-^20RMVL^23KVIV^23S^26N-hP2X1R, S^15V-rP2X3R, and His-S^15V-hP2X3R were the same as used in previous research ([Hausmann et al., 2006]; [Wolf et al., 2011]; [Hausmann et al., 2014]; [Obrecht et al., 2019]). In most cases, the N-terminal His-tagged variants of P2XRs were used here and in the previous studies to allow biochemical analyses on affinity-purified proteins using the same constructs. Although this was not required for the present study, it allows for better comparability with our previous studies. […]
Ion currents mediated by P2X receptors were evoked by the indicated concentration of ATP or α,β-meATP and were recorded 1 or 2 days after cRNA injection at ambient temperature at a holding potential of −60 mV by two-electrode voltage clamp (TEVC) as previously described ([Hausmann et al., 2006]). […]

As for `O=C(O)Cc1ccccc1Nc1c(Cl)cccc1Cl` [Diclofenac, diclofenac], the 50% inhibitory concentration (IC50) in assay [1] was […]. In addition, the “inhibition of S15V-rP2X3R-mediated currents in screening” value in assay [2] is more than 80%.
Turning to `O=C(O)c1ccccc1Nc1cccc(C(F)(F)F)c1` [Flufenamic acid, flufenamic acid], the 50% inhibitory concentration (IC50) in assay [3] (X. laevis oocytes) was 264 µM. In addition, the “inhibitory effect at 100 µM FFA” value in assay [3] (100 µM FFA) is reported as 25%.
